Assay results from patent publication US10646454B2, “Microcell delivery systems including charged or magnetic particles for regulating rate of administration of actives” (E INK CALIFORNIA, LLC, priority 2017, dated 2020).
Like-named read-outs stand apart in the source and are kept apart here.

Conditions: for release profile: versus control, FIG. 12
Experimental: Two layers of dialysis tubing (Thermo-Fisher, Waltham, Mass.) were cut to fit across the opening at the joint of the Franz cell. For control measurements, 500 μL of a 1.3 mg/mL solution of nicotine in D.I. water was pipetted into the top of the cell. Samples were removed from the receptor cell at various time points as indicated in the graph in FIG. 12.
Subsequent experiments added small amounts of polymer-coated carbon nanoparticles between the two layers of dialysis tubing. The overall coverage was approximated by taking a photograph of the combined double layer nanoparticle sandwich from the top and assessing the darkness of the layer. […] For approximately 35% coverage [circles] and for full (100%) coverage [triangles], a sample of 500 μL of a 1.3 mg/mL solution of nicotine in D.I. water was pipetted into the top of the cell and samples were removed at various time points.

CN1CCCC1c1cccnc1 (stereo not drawn) [nicotine]
release profile (approximately 35% coverage with polymer-coated carbon nanoparticles between two layers of dialysis tubing): very similar to the control
reduction in the total nicotine delivered over 24 hours (full (100%) coverage with polymer-coated carbon nanoparticles between two layers of dialysis tubing, versus control without particles, 500 μL of 1.3 mg/mL nicotine in D.I. water): 50%
release profile (full (100%) coverage with polymer-coated carbon nanoparticles between two layers of dialysis tubing): sizeable difference
